Assay: Inhibition of homogeneous KDO 8-P synthase of Escherichia coli was determined from Dixon Plot

O=C(O)C1(OP(=O)(O)O)CC(O)C(O)C([C@H](O)COP(=O)(O)O)O1 (stereo partly specified)
Ki: 4.9 µM

— ChEMBL document CHEMBL1126527, “Insight into the catalytic mechanism of KDO8P synthase. Synthesis and evaluation of the isosteric phosphonate mimic of the putative cyclic intermediate” (Bioorg Med Chem Lett, 1993)
